# From patent US9884031B2, “Use of HDAC inhibitors for treatment of cardiac rhythm disorders” (THE TRUSTEES OF THE UNIVERSITY OF PENNSYLVANIA, priority 2007, dated 2018)
# “Also recorded” adds a separate entry of the source. Marks after values point to notes of the source that are not given here.
# Assays:
# [1] = system: HopX^Tg mice; assay: Echocardiographic analysis of ventricular structure and function; format: in vivo, mouse
# Procedure: To better characterize the effects of TSA upon ventricular structure and function, echocardiographic analysis of HopX^Tg, TSA-HopX^Tg and WT mice was performed. […] However, TSA had no effect upon these parameters as ventricular wall thickness and systolic function were similar between HopX^Tg and TSA-HopX^Tg mice (Table 4), consistent with the hemodynamic analysis of these animals.
# [2] = system: phospho-JNK; assay: Western blot of atrium: phospho-JNK; format: in vivo, mouse; details: between Hop^Tg, TSA-Hop^Tg or control mice, FIG. 2B
# Procedure: (§1) Adult mouse atrium and ventricle were dissected and homogenized in buffer containing 1% Igepal surfactant, 0.5% deoxycholate sodium, 2% SDS, 5 mmol EDTA (pH=7.4), 1% protease inhibitor cocktail tablet (Roche) with and without phosphatase inhibitor cocktail (Sigma-Aldrich). Samples were cleared of debris by centrifugation at 5000 g for 10 min. and the protein concentration was determined using a BCA protein assay kit (Pierce). Protein samples were run on a 4-12% gradient pre-cast SDS-PAGE gel (Invitrogen), and after electrophoresis were transferred onto PVDF membranes (Millipore) using 0.1% acetic acid/10% methanol as a transfer buffer. Membranes were incubated with primary antibodies in 5% milk and PBS overnight at 4° C. and then washed for 5 min, 4 times with TBS-T solution. […] Results were visualized by enhanced chemiluminescence using a commercially available kit (Western Breeze, Invitrogen) and data were recorded on BioMax-MR film (Kodak, Rochester, N.Y.). Densitometry was determined using the Image-J software package (National Institutes of Health). […]
# [3] = system: Hop transgenic mice (Hop^Tg); assay: Masson's trichrome staining for collagen as marker of fibrosis; format: in vivo, mouse; details: FIG. 1; for Atrial fibrosis (in words): TSA-treated Hop transgenic mice vs untreated
# Procedure: Hearts were excised from, washed in 37° C. Dulbecco's 1×PBS, arrested in 50 mmol/L KCl, and fixed in 4% formalin. Fixed hearts were cut transversely and sectioned serially from ventricular apex to base. Two sections (5 μm each) were retained at the beginning of each 50-μm step. Sections were stained with Masson's trichrome stain for collagen as a marker of fibrosis. Quantification of the proportion of fibrosis in each heart was then performed with scientific imaging software (Image-J, National Institutes of Health)) and high-resolution serial scanning technique. Histological sections from the entire left ventricle and both atrium were used for analysis from three different hearts.
# (§2) Trichostatin A 0.6 mg/kg daily in a volume of 0.2 mL was given by intraperitoneal injection for 14 consecutive days upon inducible atrial arrhythmias and atrial structurally remodeling in an engineered mouse model with left ventricular hypertrophy and inducible atrial fibrillation. Transgenic mice over-expressing the homeodomain-only protein (Hop^Tg), which promotes cardiac hypertrophy and interstitial fibrosis, were divided into three groups: control, Hop^Tg mice and Hop^Tg mice treated with trichostatin A.
# [4] = system: Hop transgenic mice (Hop^Tg); assay: Invasive hemodynamic measurements; format: in vivo, mouse; details: for Effect upon LVEDP, systolic contraction (peak positive dP/dt) and diastolic relaxation (peak negative dP/dt), in words: TSA-Hop^Tg vs Hop^Tg, treatment initiated at 12-14 weeks of age
# Procedure: Hop^Tg mice 14-18 weeks old were compared with wild-type littermates and TSA treated Hop^Tg mice. Anesthesia was induced with 3% isoflurane and maintained by ventilation with 0.75% isoflurane. Temperature was maintained at 36-37° C. Intracardiac pressures were recorded using a 1.4 French micromanometer catheter (Micro-Tip SPR-671; Millar Instruments) that was zeroed prior to making measurements on each animal in a saline bath. The catheter was inserted via the right carotid artery to record intracardiac pressures and digitized at 2-kHz using a PowerLab/16 SP A/D converter (ADInstruments Ltd.).
# as §2
# (§3) Hop^Tg mice had higher left ventricular end-diastolic pressure (LVEDP), and reduced peak systolic contraction and diastolic relaxation compared to WT mice. However, trichostatin A had no effect upon the LVEDP, systolic contraction or diastolic relaxation when treatment was initiated in animals aged 12-14 weeks of age. These parameters were similar between Hop^Tg and TSA-Hop^Tg mice, though still abnormal when compared to WT mice. In addition, the heart weight to tibia length ratio (HW/TL) was higher in Hop^Tg and TSA-Hop^Tg mice compared to WT, but there was no difference in the HW/TL between Hop^Tg and TSA-Hop^Tg mice. *P<0.05 compared to WT; ^†P<0.05 compared to TSA-Hop^Tg.
# [5] = system: phospho-ERK1/2; assay: Western blot of atrium: phospho-ERK1/2; format: in vivo, mouse; details: TSA-Hop^Tg mice relative to Hop^Tg, FIG. 2D
# Procedure: as §1
# [6] = system: phospho-p38-MAPK; assay: Western blot of atrium: phospho-p38-MAPK; format: in vivo, mouse; details: between Hop^Tg, TSA-Hop^Tg or control mice, FIG. 2C
# Procedure: as §1
# [7] = system: connexin40; assay: Immunoblot analysis of atrial connexin40; format: in vivo, mouse; details: TSA-treated Hop transgenic mice, FIG. 3A
# Procedure: as §1
# [8] = system: activated TGF-β1; assay: Western blot of atrium: activated TGF-β1; format: in vivo, mouse; details: TSA-Hop^Tg mice relative to Hop^Tg, FIG. 2E
# Procedure: as §1
# [9] = system: Hop transgenic mice (HopX^Tg); assay: Morphometric analysis of hearts (heart weight, atrial weight ratios); format: in vivo, mouse; details: for Heart weight to tibia length ratio (HW/TL), in words: TSA-Hop^Tg vs Hop^Tg mice
# Procedure: as §2, §3
# [10] = system: histone acetylation; details: TSA 0.6 mg/kg/day, previous studies; cited from earlier work
# [11] = system: Hop transgenic mice (Hop^Tg); assay: In-vivo electrophysiology study: inducible arrhythmias by programmed electrical stimulation; parameters: species or system mouse
# Procedure: An in-vivo electrophysiology study was performed in each mouse to assess atrial and ventricular conduction, refractoriness, and arrhythmia inducibility. Surface ECG recordings and complete in vivo electrophysiological studies (EPS) were obtained from Hop^Tg mice (14-18 weeks old), age-matched non-transgenic littermates and TSA-treated Hop^Tg mice. Each mouse was anesthetized with pentobarbital ([…] IP), and multi-lead ECGs were obtained using 26-gauge subcutaneous electrodes. Temperature was maintained at 32-33° C. A jugular vein cutdown was performed and an octapolar 2-French electrode catheter (CIBer mouse-EP; NuMED, Inc) placed in the right atrium and ventricle under electrogram guidance to confirm catheter position. A programmed digital stimulator (DTU-215A, Bloom Associates Ltd) was used to deliver electrical impulses at approximately twice diastolic threshold. […] ECG channels were filtered from 0.5 to 250 Hz and intracardiac electrograms were filtered from 5 to 400 Hz. ECG intervals were measured by two independent observers blinded to the animal's genotype.
# The PR, QRS, RR, and QT intervals were measured in 6 surface-limb ECG leads by 2 independent observers, who were both blinded to the animals' genotype. Intracardiac recordings were obtained during identical pacing and programmed electrical stimulation protocols for all mice by experienced investigators.
# Trichostatin A 0.6 mg/kg daily in a volume of 0.2 mL was given by intraperitoneal injection for 14 consecutive days prior to cardiac electrical stimulation in Hop transgenic mice (Hop^Tg) compared with wild-type controls (WT).
# Ventricular programmed electrical stimulation induced similar numbers and durations of ventricular tachycardia in 3 of 11 Hop^Tg mice compared to 4 of 12 control mice (P=NS).
# [12] = system: 3 week-old HopX^Tg mice; details: cited from earlier work
# [13] = system: models of pressure-overload and angiotensin-induced hypertrophy; details: cited from earlier work
# [14] = system: connexin43; assay: Immunoblot analysis of atrial connexin43; format: in vivo, mouse; details: WT, Hop and TSA-Hop mice, FIG. 3B
# Procedure: as §1
# [15] = system: connexin40 and connexin43; assay: Distribution of atrial connexins (quantitative confocal immunodetection); format: in vivo, mouse; details: TSA-treated Hop^Tg mice
# Procedure: Mice were heparizined, anesthetized with pentobarbital […] and hearts excised through a sternotomy. Hearts were mounted on a Langendorf apparatus, perfused with Tyrode's solution (composition as in Ref. 21) at 3.0-3.5 milliliter [ml]/minute [min] at a temperature of 36°-37° C. Hearts were perfused with Ca^2+-free Tyrode's solution for 6 min., followed by 12-15 min. of perfusion with Ca^2+-free Tyrode's solution containing: collagenase B, collagenase D (Roche Chemical Co.) and protease (Fraction IV, Sigma Chemical Co.). […]
# The area of immunoreactive signal in discrete spots from isolated atrial myocytes was quantified using laser scanning confocal microscopy. Scanning of single optical slices (<1 μm) by confocal laser scanning microscopy was done on the Leica TCS SP2 system using the spectral detection set for simultaneous fluorescence imaging of Alexa488 and DIC imaging with transmitted light to obtain the cell outline. […] Areas were quantified using the count nuclei application in the Metamorph software package (Molecular Devices). The total area of each atrial myocyte was calculated from the DIC images and the area of the connexin immunoreactive spots was calculated from the Alexa488 fluorescent images.
# [16] = TSA-treated HopX^Tg mice, n = 4, echocardiography
# [17] = TSA 0.6 mg/kg daily IP 14 days, Hop^Tg mice, n = 8, mean±SD
# [18] = TSA 0.6 mg/kg daily IP 14 days, HopX^Tg mice, n = 13, mean±SD
# [19] = TSA 0.6 mg/kg daily IP 14 days, Hop^Tg mice
# [20] = TSA 0.6 mg/kg daily IP 14 days, Hop^Tg mice, n = 10
# [21] = TSA 0.6 mg/kg daily IP 14 days, Hop^Tg mice, n = 10, mean±SD
compound,measurement,setting,value
"CC(/C=C/C(=O)NO)=C\[C@@H](C)C(=O)c1ccc(N(C)C)cc1 [TSA, Trichostatin A]","Ventricular wall thickness and systolic function, in words","[1]; TSA-HopX^Tg vs HopX^Tg mice, echocardiography",no effect
same,Intra-ventricle Septum,[1]; [16],1.13 ± 0.18 mm
same,LV Ejection Fraction,[1]; [16],87.7 ± 7.00 %
same,LV Fractional Shortening,[1]; [16],53.9 ± 0.50 %
same,Left Ventricle Posterior Wall,[1]; [16],1.10 ± 0.14 mm
same,"Left ventricular wall dimensions, in words",[1]; older 14-18 week-old HopX^Tg mice treated with TSA,no change
same,Phospho-JNK protein expression in atrium,[2],not different
same,Atrial fibrosis (in words),[3]; listed as Trichostatin A,reduced
same,Atrial fibrosis (in words),[3]; listed as trichostatin A,complete reversal of atrial fibrosis
same,Ventricular interstitial fibrosis (in words),[3]; three groups incl. TSA-Hop,no obvious ventricular interstitial fibrosis
same,Heart rate,[4]; [17],392 ± 63.5 bpm
same,LV end diastolic pressure,[4]; [17],7.2 ± 2.4* mmHg
same,LV systolic pressure,[4]; [17],90.6 ± 8.8 mmHg
same,Peak negative dP/dt,[4]; [17],−2267 ± 1320* mmHg/s
same,Peak positive dP/dt,[4]; [17],6465 ± 1613 mmHg/s
same,"Effect upon LVEDP, systolic contraction (peak positive dP/dt) and diastolic relaxation (peak negative dP/dt), in words",[4],no significant changes
same,"Effect upon LVEDP, systolic contraction (peak positive dP/dt) and diastolic relaxation (peak negative dP/dt), in words",[4]; listed as trichostatin A,no effect
same,Phospho-ERK1/2 protein expression in atrium,[5],increased
same,Phospho-p38-MAPK protein expression in atrium,[6],not different
same,Atrial connexin40 expression,[7],normalized
same,Activated TGF-β1 protein expression in atrium,[8],further decreased
same,Heart weight,[9]; [18],192.8 ± 15.5* mg
same,Heart weight/body weight,[9]; [18],7.4 ± 0.67* mg/g
same,"Heart weight to tibia length ratio (HW/TL), in words",[9]; 14-18 week-old,no significant changes; also recorded: no change
same,"Heart weight to tibia length ratio (HW/TL), in words","[9]; 14-18 week-old, listed as trichostatin A",no difference
same,"Atrial weight/tibial length ratio (AW/TL), in words","[9]; TSA-treated HopX^Tg vs HopX^Tg mice, 14-18 week-old",no significant changes; also recorded: no change
same,"Histone acetylation in the heart, in words",[10],does augment histone acetylation
same,Mice with AT,[11]; [19],2/15
same,Mice with VT,[11]; [19],2/15
same,Episodes AT (atrial tachycardia),[11]; [20],5
same,Episodes VT (ventricular tachycardia),[11]; [20],4
same,AT CL (atrial tachycardia cycle length),[11]; [21],47.0 ± 7.2 ms
same,Duration AT,[11]; [21],0.148 ± 0.110 s
same,Duration VT,[11]; [21],0.89 ± 1.07 s
same,VT CL (ventricular tachycardia cycle length),[11]; [21],50.4 ± 8.6 ms
same,Mice in which atrial programmed electrical stimulation induced atrial arrhythmia,"[11]; TSA-Hop^Tg mice vs 9 of 11 Hop^Tg mice, P<0.01",2 of 10
same,Mice in which ventricular programmed electrical stimulation induced ventricular tachycardia,"[11]; TSA-Hop^Tg mice vs Hop^Tg mice, P<0.05",2 of 10
same,Atrial arrhythmia inducibility (in words),[11]; TSA-treated Hop transgenic mice vs untreated,complete reversal of atrial arrhythmia inducibility
same,Duration and episodes of atrial fibrillation (in words),[11]; TSA-treated Hop^Tg mice vs untreated,reduced
same,"Cardiac hypertrophy, in words",[12],partially reduces
same,"Myocardial mechanical function, in words",[13],improve
same,Atrial connexin43 expression,[14],no changes
same,Distribution of connexin40 and connexin43 in the atrium,[15],restored
